Here are results for one compound from patent US8455397B2, “Penoxsulam as a turfgrass, vineyard and orchard floor herbicide” (Dow AgroSciences, LLC, priority 2005, dated 2013).

The subject of the assay is Hydrocotyle species (HYDSS). Description: Post emergent synergy field study, penoxsulam + dicamba granule. The format is in vivo. As to conditions: 112 gai/Ha on 30-3-4 granule fertilizer, average of 2 studies 4 weeks after application. The protocol: Field and greenhouse studies were conducted to determine if there may be any synergistic response when penoxsulam is combined with other herbicides for post emergence broadleaf or sedge control. Field studies were conducted in established turfgrass sites containing a natural population of target broadleaf weeds. Replicated trials, containing a minimum of three replications and having individual plots ranging in size from 25 to 50 ft. sq (2.3 to 4.6 square meters), were initiated in the late spring when turf and weeds were actively growing. Granule treatments were uniformly applied to individual plots using a common hand-shaker method. Applications were made in the early morning when dew was present. Natural rainfall and supplemental irrigation were used to maintain healthy turf and active weed growth throughout the study period. Control of each weed species in the study site was made at 2, 4 and 8 weeks after treatment. Control was determined visually by comparing treated and untreated weeds and scored on a 0 to 100 percent scale where 0 corresponds to no control and 100 corresponds to complete kill.
Component A was penoxsulam at 0.02 or 0.04 lb ai/A. Component B was dicamba at 0.1 lb ai/A. Individual products and mixture were applied on a 30-3-4 granule fertilizer formulated to deliver 116 pounds fertilizer per acre (129 kg per hectare). Loadings for the individual component on the fertilizer were: • Penoxsulam 22.4 gai/Ha (0.02 lb ai/A)=0.017% • Penoxsulam 44.9 gai/Ha (0.04 lb ai/A)=0.034% • Dicamba 112 gae/Ha (0.1 lb ai/A)=0.086%
For combinations the same loadings were applied to the same granule carrier and applied as a single product to test area.

As for `COc1c(Cl)ccc(Cl)c1C(=O)O` [Dicamba, dicamba, reference compound], the “% Control Component B” value was found to be 29%.
